In ChEMBL document CHEMBL1201862, “PubChem BioAssay data set” (2004):
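Tested at 5 concentrations; 48 h exposure; 96-well plates; endpoints linearly interpolated, else capped at highest concentration. GI50: concentration for 50% inhibition of growth.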 The source made the active and inactive calls. Rule as the data show it: active = GI50 up to about 1.1 µM and inactive = higher.

Legend:
Test in all cases: NCI tumour cell line growth inhibition, 48 h
COLO 205 = test system: COLO 205
OVCAR-4 = test system: OVCAR-4
DMS-273 = test system: DMS-273
SK-MEL-2 = test system: SK-MEL-2
ACHN = test system: ACHN
HT-29 = test system: HT-29
SF-268 = test system: SF-268
M14 = test system: M14
A549 = test system: A549
NCI-H460 = test system: NCI-H460
SF-295 = test system: SF-295
NCI-H522 = test system: NCI-H522
RPMI-8226 = test system: RPMI-8226
786-0 = test system: 786-0
OVCAR-8 = test system: OVCAR-8
DLD-1 = test system: DLD-1
U-251 = test system: U-251
MDA-N = test system: MDA-N
MDA-MB-435 = test system: MDA-MB-435
DU-145 = test system: DU-145

Measured: GI50

Nc1nnc2c(-c3ccccc3)n[nH]c2n1
inactive: COLO 205 34.4 µM | OVCAR-4 > 100 µM | DMS-273 50.9 µM | SK-MEL-2 90.2 µM | ACHN 30 µM | HT-29 24.4 µM | SF-268 17.1 µM | M14 > 100 µM | A549 23.5 µM | NCI-H460 26.3 µM | SF-295 67 µM | NCI-H522 > 100 µM | RPMI-8226 55.3 µM | 786-0 62.4 µM | OVCAR-8 49.7 µM

CC(C)OP(=S)(NC(=S)c1ccccc1)OC(C)C
inactive: COLO 205 > 100 µM | OVCAR-4 > 100 µM | DMS-273 > 100 µM | SK-MEL-2 > 100 µM | ACHN > 100 µM | HT-29 > 100 µM | SF-268 > 100 µM | M14 > 100 µM | A549 > 100 µM | DLD-1 > 100 µM | NCI-H460 59 µM | U-251 > 100 µM | SF-295 76.2 µM | 786-0 > 100 µM | OVCAR-8 > 100 µM

CCCCCC(=O)Cc1cc(OC)cc2c1C(=O)Oc1cc(O)c(C(=O)O)c(CC(=O)CCCCC)c1O2
inactive: COLO 205 45 µM | DMS-273 32.1 µM | ACHN 35.7 µM | HT-29 41.2 µM | SF-268 35.2 µM | M14 63.2 µM | A549 43.2 µM | DLD-1 35.6 µM | NCI-H460 52.5 µM | U-251 15.8 µM | SF-295 55.3 µM | NCI-H522 46.3 µM | RPMI-8226 42 µM | 786-0 18.9 µM | OVCAR-8 47.1 µM

COC1/C(=C\C(=O)OC(C)(C)C)c2ccccc2N1C(C)=O (stereo not drawn)
inactive: COLO 205 > 100 µM | OVCAR-4 > 100 µM | DMS-273 > 100 µM | SK-MEL-2 > 100 µM | ACHN > 100 µM | HT-29 > 100 µM | M14 > 100 µM | A549 > 100 µM | DLD-1 > 100 µM | NCI-H460 > 100 µM | U-251 > 100 µM | SF-295 > 100 µM | RPMI-8226 34.8 µM | 786-0 > 100 µM | OVCAR-8 > 100 µM

O=C(O)c1[nH]c(C(=O)O)c(CC(F)(F)C(F)(F)C(F)(F)F)c1CC(F)(F)C(F)(F)C(F)(F)F
inactive: COLO 205 > 100 µM | OVCAR-4 > 100 µM | DMS-273 > 100 µM | ACHN > 100 µM | HT-29 > 100 µM | SF-268 > 100 µM | M14 > 100 µM | A549 > 100 µM | DLD-1 > 100 µM | NCI-H460 > 100 µM | U-251 > 100 µM | SF-295 > 100 µM | NCI-H522 > 100 µM | RPMI-8226 > 100 µM | 786-0 > 100 µM | OVCAR-8 > 100 µM

CCCCOC1CC2(c3ccc(OC)cc3)C(=O)c3ccccc3N2O1 (stereo not drawn)
inactive: COLO 205 27.1 µM | DMS-273 > 10 µM | SK-MEL-2 71.6 µM | ACHN > 10 µM | SF-268 50.5 µM | M14 46.1 µM | A549 43.8 µM | NCI-H460 > 10 µM | U-251 > 10 µM | SF-295 42.1 µM | NCI-H522 21.3 µM | RPMI-8226 18 µM | 786-0 88.1 µM | OVCAR-8 82.2 µM

CCCCCCCCCCCCCP(=O)(O)OCC
inactive: COLO 205 > 100 µM | OVCAR-4 > 100 µM | SK-MEL-2 > 100 µM | ACHN > 100 µM | HT-29 > 100 µM | SF-268 > 100 µM | M14 > 100 µM | A549 > 100 µM | DLD-1 > 100 µM | NCI-H460 > 100 µM | U-251 > 100 µM | SF-295 > 100 µM | NCI-H522 > 100 µM | 786-0 > 100 µM | OVCAR-8 > 100 µM

Cc1nc(-c2nc(C)c(C(=O)NNC(=O)C[n+]3ccccc3)s2)sc1C(=O)NNC(=O)C[n+]1ccccc1
inactive: COLO 205 > 100 µM | SK-MEL-2 > 100 µM | ACHN 59.2 µM | HT-29 > 100 µM | SF-268 39.7 µM | M14 > 100 µM | A549 > 100 µM | DLD-1 19.3 µM | NCI-H460 > 100 µM | U-251 79.4 µM | SF-295 65.6 µM | RPMI-8226 64.6 µM | 786-0 35.9 µM | OVCAR-8 > 100 µM

COc1cc(Nc2cnc3ccc(C(F)(F)F)cc3n2)cc(OC)c1OC
inactive: COLO 205 6.18 µM | DMS-273 25.5 µM | SK-MEL-2 24.7 µM | ACHN 9.95 µM | HT-29 12.2 µM | SF-268 84.5 µM | A549 20.4 µM | NCI-H460 12.9 µM | U-251 > 100 µM | SF-295 5.53 µM | RPMI-8226 15.3 µM | 786-0 13.5 µM | OVCAR-8 > 100 µM

COC(=O)/C(=C/c1ccc(OC)cc1)NC(=O)c1ccccc1
inactive: OVCAR-4 > 100 µM | SK-MEL-2 > 100 µM | ACHN > 100 µM | HT-29 > 100 µM | SF-268 > 100 µM | M14 > 100 µM | A549 > 100 µM | DLD-1 > 100 µM | NCI-H460 > 100 µM | U-251 > 100 µM | SF-295 > 100 µM | RPMI-8226 > 100 µM | 786-0 > 100 µM | OVCAR-8 > 100 µM

COc1ccc(/C=c2/sc3n(c2=O)NC(c2ccc(Cl)cc2)NN=3)cc1 (stereo not drawn)
inactive: COLO 205 > 100 µM | OVCAR-4 > 100 µM | DMS-273 > 100 µM | SK-MEL-2 > 100 µM | HT-29 > 100 µM | SF-268 > 100 µM | M14 > 100 µM | A549 > 100 µM | DLD-1 > 100 µM | NCI-H460 > 100 µM | U-251 > 100 µM | SF-295 > 100 µM | NCI-H522 > 100 µM | 786-0 > 100 µM | OVCAR-8 > 100 µM

O=c1cc(-c2ccccc2)oc2cc(OCCSCCCCCCCCCCSCCOc3ccc4c(=O)cc(-c5ccccc5)oc4c3)ccc12
inactive: COLO 205 > 100 µM | SK-MEL-2 > 100 µM | ACHN > 100 µM | HT-29 > 100 µM | SF-268 74.3 µM | M14 > 100 µM | A549 > 100 µM | DLD-1 > 100 µM | U-251 > 100 µM | SF-295 > 100 µM | NCI-H522 94.2 µM | RPMI-8226 > 100 µM | 786-0 73.5 µM | OVCAR-8 > 100 µM

COC(=O)c1cc2c(cc1Cl)Sc1nnc(Nc3ccc(C)cc3)n1S2(=O)=O
inactive: COLO 205 4.84 µM | OVCAR-4 2.76 µM | SK-MEL-2 2.9 µM | ACHN 3.48 µM | MDA-N 6.44 µM | HT-29 3.92 µM | SF-268 3.6 µM | M14 12.7 µM | A549 15.4 µM | NCI-H460 11.6 µM | U-251 3.87 µM | MDA-MB-435 7.19 µM | SF-295 10.9 µM | NCI-H522 2.67 µM | RPMI-8226 2.17 µM | DU-145 2.65 µM | 786-0 7.69 µM | OVCAR-8 10.5 µM
